Results taken from ChEMBL document CHEMBL5038618, “Discovery of PT-65 as a highly potent and selective Proteolysis-targeting chimera degrader of GSK3 for treating Alzheimer's disease” (Eur J Med Chem, 2021).
The source made the active and inactive calls. No cut-off for these calls is given here.

Legend:
SH-SY5Y [1] = test: Downregulation of GSK3alpha expression in human SH-SY5Y cells at 62.5 to 500 nM pretreated for 2 hrs followed by Abeta42 coincubation for 72 hrs by Westernblot analysis; type: functional, cell-based; details: dose 62.5-500 nM, time 74.0 hrs
SH-SY5Y [2] = test: Downregulation of GSK3beta expression in human SH-SY5Y cells at 62.5 to 500 nM pretreated for 2 hrs followed by Abeta42 coincubation for 72 hrs by Westernblot analysis; type: functional, cell-based; details: dose 62.5-500 nM, time 74.0 hrs
SH-SY5Y [3] = test: Cytotoxicity against human SH-SY5Y cells assessed as cell viability upto 100 uM measured after 72 hrs by CCK8 assay; type: functional, cell-based; details: dose microM <=100, time 72.0 hrs
SH-SY5Y [4] = test: Effect on tau protein expression in human SH-SY5Y cells assessed as reduction on phosphorylated tau Ser396 residue level at 62.5 to 500 nM pretreated for 2 hrs followed by Abeta42 coincubation for 72 hrs by Westernblot analysis; type: functional, cell-based; details: dose 62.5-500 nM, time 74.0 hrs
[5] = target: Glycogen synthase kinase-3 alpha (Homo sapiens) (UniProt P49840); test: Induction of GSK3alpha degradation in human SH-SY5Y cells assessed as maximum degradation at 1 uM measured after 9 hrs by western blot assay; type: cell-based
Sequence of Glycogen synthase kinase-3 alpha (Homo sapiens) (P49840 2-483 limits assumed): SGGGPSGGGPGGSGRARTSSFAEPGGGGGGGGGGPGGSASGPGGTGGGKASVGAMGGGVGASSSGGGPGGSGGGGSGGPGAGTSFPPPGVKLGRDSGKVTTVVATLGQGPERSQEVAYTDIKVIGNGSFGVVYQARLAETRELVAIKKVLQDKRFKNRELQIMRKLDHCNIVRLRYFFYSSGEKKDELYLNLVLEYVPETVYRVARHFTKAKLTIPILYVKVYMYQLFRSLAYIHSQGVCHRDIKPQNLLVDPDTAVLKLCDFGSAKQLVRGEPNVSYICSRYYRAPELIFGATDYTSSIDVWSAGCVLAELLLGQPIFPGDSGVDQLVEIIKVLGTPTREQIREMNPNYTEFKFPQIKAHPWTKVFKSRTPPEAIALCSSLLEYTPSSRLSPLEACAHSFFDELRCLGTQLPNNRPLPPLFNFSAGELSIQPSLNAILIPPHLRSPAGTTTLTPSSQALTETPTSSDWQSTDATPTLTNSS

[6] = target: Glycogen synthase kinase-3 beta (Homo sapiens, UniProt P49841); test: Binding affinity to recombinant GSK3beta (unknown origin) assessed as dissociation […] constant upto 0.00975 uM by SPR analysis
Sequence of Glycogen synthase kinase-3 beta (P49841 whole entry): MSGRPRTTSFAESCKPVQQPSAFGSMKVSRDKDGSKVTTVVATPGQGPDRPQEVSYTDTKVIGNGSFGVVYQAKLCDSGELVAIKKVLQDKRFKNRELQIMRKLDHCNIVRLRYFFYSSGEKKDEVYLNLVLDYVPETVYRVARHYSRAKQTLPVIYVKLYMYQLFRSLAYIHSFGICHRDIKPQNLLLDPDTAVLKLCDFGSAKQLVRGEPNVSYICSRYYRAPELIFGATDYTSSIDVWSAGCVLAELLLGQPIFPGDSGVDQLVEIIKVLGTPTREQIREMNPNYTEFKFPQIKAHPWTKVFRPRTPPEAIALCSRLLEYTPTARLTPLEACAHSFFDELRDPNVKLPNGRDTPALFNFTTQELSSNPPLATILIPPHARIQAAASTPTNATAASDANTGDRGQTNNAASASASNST

SH-SY5Y [7] = test: Induction of apoptosis in human SH-SY5Y cells assessed as necrotic cells at 62.5 nM preincubated for 2 hrs followed by coincubation with Abeta42 and measured after 72 hrs by Annexin V-FITC/propidium iodide staining based flow cytometry (Rvb=0.7%); type: functional; details: time 74 hrs
SH-SY5Y [8] = test: Induction of apoptosis in human SH-SY5Y cells assessed as late apoptotic cells at 125 nM preincubated for 2 hrs followed by coincubation with Abeta42 and measured after 72 hrs by Annexin V-FITC/propidium iodide staining based flow cytometry (Rvb=3.5%); type: functional; details: time 74 hrs
SH-SY5Y [9] = test: Induction of apoptosis in human SH-SY5Y cells assessed as live cells at 250 nM preincubated for 2 hrs followed by coincubation with Abeta42 and measured after 72 hrs by Annexin V-FITC/propidium iodide staining based flow cytometry (Rvb=94.8%); type: functional; details: time 74 hrs
SH-SY5Y [10] = test: Induction of apoptosis in human SH-SY5Y cells assessed as early apoptotic cells at 250 nM preincubated for 2 hrs followed by coincubation with Abeta42 and measured after 72 hrs by Annexin V-FITC/propidium iodide staining based flow cytometry (Rvb=1%); type: functional; details: time 74 hrs
[11] = target: Protein cereblon/Glycogen synthase kinase-3 alpha (Homo sapiens, UniProt P49840+Q96SW2); test: Protac activity at CRBN/GSK3alpha in human SH-SY5Y cells assessed as induction of GSK3alpha degradation at 0.1 uM measured after 24 hrs; type: cell-based
Sequence of Protein cereblon/Glycogen synthase kinase-3 alpha (P49840 2-483 limits assumed): as the sequence (P49840 2-483 limits assumed) above
Sequence of Protein cereblon/Glycogen synthase kinase-3 alpha (Q96SW2 whole entry partner): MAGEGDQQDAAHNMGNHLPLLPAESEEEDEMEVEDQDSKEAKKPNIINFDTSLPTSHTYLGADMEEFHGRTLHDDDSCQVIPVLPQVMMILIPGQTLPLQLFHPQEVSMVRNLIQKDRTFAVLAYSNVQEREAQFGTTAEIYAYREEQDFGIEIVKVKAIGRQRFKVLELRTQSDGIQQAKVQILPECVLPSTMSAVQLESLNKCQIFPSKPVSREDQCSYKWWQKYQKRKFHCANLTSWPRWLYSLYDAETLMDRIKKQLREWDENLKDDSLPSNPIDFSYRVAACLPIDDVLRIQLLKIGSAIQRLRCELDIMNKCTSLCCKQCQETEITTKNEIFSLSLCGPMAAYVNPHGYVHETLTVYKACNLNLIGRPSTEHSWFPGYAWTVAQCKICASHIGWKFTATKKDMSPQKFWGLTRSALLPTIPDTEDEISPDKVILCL

hERG (KCNH2) = hERG (KCNH2) (Homo sapiens, UniProt Q12809); test: Inhibition of hERG expressed in CHO cells at 40 uM by whole cell patch clamp assay; type: cell-based; details: CHO cells that express hERG
Sequence of hERG (KCNH2) (Q12809 whole entry): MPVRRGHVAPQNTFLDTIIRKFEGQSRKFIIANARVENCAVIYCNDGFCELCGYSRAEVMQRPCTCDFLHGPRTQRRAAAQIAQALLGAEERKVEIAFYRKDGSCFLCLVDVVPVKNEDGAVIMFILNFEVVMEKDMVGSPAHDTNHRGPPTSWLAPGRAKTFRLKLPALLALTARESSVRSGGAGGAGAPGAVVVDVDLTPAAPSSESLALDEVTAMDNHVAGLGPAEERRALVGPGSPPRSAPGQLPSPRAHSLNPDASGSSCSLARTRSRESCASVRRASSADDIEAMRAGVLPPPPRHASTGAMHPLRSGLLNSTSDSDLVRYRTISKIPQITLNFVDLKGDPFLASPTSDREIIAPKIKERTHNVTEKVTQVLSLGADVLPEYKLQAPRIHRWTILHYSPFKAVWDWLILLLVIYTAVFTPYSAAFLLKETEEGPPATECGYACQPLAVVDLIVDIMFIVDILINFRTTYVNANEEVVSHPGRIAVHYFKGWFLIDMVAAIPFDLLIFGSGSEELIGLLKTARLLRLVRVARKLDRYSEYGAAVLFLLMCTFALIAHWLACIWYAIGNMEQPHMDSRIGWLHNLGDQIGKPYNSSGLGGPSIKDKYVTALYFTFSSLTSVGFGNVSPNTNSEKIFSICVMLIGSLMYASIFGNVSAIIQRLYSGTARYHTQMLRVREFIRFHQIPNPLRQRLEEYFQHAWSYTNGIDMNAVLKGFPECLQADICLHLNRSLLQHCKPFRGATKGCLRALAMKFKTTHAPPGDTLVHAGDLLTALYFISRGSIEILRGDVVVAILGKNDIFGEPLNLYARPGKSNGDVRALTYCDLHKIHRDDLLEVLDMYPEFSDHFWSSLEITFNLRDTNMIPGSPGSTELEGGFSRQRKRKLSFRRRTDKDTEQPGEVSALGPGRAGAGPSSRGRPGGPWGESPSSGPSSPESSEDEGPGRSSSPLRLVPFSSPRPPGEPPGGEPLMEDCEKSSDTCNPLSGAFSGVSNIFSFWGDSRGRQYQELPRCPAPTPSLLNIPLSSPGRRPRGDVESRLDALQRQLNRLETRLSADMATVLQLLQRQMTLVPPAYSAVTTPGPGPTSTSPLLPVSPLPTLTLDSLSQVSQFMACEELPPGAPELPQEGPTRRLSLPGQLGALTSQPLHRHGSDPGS

Rattus norvegicus [12] = test: Antialzheimer activity against hippocampal tissue of okadaic acid induced Sprague-Dawley rat assessed as reduction on GSK3alpha protein level at 200 to 600 uM, iv by western blot assay; type: functional, organism-based; details: Hippocampus, dose 200-600 µM
Rattus norvegicus [13] = test: Antialzheimer activity against hippocampal tissue of okadaic acid induced Sprague-Dawley rat assessed as reduction on GSK3alpha protein level at 200 to 600 uM, iv by immunohistochemical staining based analysis; type: functional, organism-based; details: Hippocampus, dose 200-600 µM
Rattus norvegicus [14] = test: Antialzheimer activity against hippocampal tissue of okadaic acid induced Sprague-Dawley rat assessed as reduction on tau protein level at 200 to 600 uM, iv by immunohistochemical staining based analysis; type: functional, organism-based; details: Hippocampus, dose 200-600 µM

- Activity [5]: Active
- Kd [6]: 0.0253 s⁻¹
- Activity [11]: 74.4%
Structure (SMILES): Nc1ncc(-c2ccc(S(=O)(=O)N3CCN(CCCCc4cn(CCOCCOCCOCCOCCOCCNc5cccc6c5C(=O)N(C5CCC(=O)NC5=O)C6=O)nn4)CC3)cc2)nc1C(=O)Nc1cccnc1 (stereo not given)
- Activity (SH-SY5Y [1]): Dose-Dependent Effect
- Activity (SH-SY5Y [2]): Dose-Dependent Effect
- Activity (SH-SY5Y [3]): inactive
- Activity (SH-SY5Y [4]): Dose-Dependent Effect
- Activity (SH-SY5Y [7]): 6.7%
- Activity (SH-SY5Y [8]): 12.5%
- Activity (SH-SY5Y [9]): 89.5%
- Activity (SH-SY5Y [10]): 1.2%
- inhibition at 40 µM (hERG (KCNH2)): 15.4%
- Activity (Rattus norvegicus [12]): Active
- Activity (Rattus norvegicus [13]): Active
- Activity (Rattus norvegicus [14]): Active
